Here are results for 33 compounds from patent US8614327B2 (Vertex Pharmaceuticals Incorporated, priority 2004, dated 2013).

Molecules are shown by their SMILES.

The target in the experiment is T1, ΔF508-CFTR (Homo sapiens, UniProt P13569, DEL508-508).
T1 construct: expressed in transfected cells
The experiment can be described thus: Membrane potential optical (FRET/VIPR) assay, identification of potentiator compounds. The format is cell-based. The note with it: Table 3, assay not given; for % Activity: relative efficacy. The gist of the method: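 NIH3T3 mouse fibroblasts stably expressing ΔF508-CFTR, temperature-corrected 24 h at 27° C., read on VIPR by FRET between CC2-DMPE and DiSBAC2(3). Potentiators identified in a double-addition format, first adding chloride-free (gluconate) medium with or without compound.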

T1 sequence (P13569 with tags, fused parts or gaps DEL508-508): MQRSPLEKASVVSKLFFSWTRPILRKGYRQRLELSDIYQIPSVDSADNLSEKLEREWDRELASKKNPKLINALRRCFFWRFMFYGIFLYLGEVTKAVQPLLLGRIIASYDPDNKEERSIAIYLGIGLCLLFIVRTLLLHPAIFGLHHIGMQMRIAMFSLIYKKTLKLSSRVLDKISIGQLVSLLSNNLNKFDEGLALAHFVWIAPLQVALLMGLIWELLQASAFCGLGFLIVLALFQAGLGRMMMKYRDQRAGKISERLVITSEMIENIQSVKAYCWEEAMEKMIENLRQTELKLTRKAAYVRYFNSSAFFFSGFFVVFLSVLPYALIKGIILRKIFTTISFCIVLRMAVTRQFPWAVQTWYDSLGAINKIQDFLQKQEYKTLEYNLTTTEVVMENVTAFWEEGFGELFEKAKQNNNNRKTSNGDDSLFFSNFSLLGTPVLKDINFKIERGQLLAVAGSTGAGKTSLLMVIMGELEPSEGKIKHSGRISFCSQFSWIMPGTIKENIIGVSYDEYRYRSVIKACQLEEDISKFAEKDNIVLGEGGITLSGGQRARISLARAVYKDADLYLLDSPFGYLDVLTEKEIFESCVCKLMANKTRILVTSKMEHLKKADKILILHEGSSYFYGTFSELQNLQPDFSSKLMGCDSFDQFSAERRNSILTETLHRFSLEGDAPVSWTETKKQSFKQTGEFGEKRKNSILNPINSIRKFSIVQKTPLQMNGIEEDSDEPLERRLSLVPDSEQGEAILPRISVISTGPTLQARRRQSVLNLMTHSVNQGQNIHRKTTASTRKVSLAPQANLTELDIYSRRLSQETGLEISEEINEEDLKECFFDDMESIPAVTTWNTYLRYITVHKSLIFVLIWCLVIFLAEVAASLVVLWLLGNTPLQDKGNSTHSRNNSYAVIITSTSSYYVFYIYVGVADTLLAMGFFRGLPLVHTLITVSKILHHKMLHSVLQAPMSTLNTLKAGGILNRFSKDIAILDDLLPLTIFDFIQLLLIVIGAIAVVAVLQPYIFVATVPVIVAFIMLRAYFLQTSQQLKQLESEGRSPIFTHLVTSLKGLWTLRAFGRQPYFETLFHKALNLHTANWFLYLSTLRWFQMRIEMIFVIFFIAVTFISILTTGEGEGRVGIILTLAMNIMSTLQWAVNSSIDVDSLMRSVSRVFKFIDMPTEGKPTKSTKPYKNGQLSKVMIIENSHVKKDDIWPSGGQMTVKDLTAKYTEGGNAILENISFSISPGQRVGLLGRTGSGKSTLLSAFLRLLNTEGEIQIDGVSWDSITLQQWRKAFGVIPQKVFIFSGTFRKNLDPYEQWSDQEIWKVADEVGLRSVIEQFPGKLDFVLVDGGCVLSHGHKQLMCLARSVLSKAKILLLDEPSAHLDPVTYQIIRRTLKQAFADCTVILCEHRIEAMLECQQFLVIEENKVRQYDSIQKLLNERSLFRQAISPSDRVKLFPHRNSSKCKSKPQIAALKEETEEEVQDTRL

The EC50 is the concentration needed to bring the measured effect to its halfway point. As to `O=C(Nc1ccc2[nH]c(=O)[nH]c2c1)c1c[nH]c2ccccc2c1=O` [Compound 64, 4-oxo-N-(2-oxo-1,3-dihydrobenzoimidazol-5-yl)-1H-quinoline-3-carboxamide], the 50% effective concentration (EC50) lay in the range of 25 to 60 µM and the “% Activity” value is reported as “+ (<25%)”. With `CC(C)c1cc(C(F)(F)F)c(NC(=O)c2c[nH]c3ccccc3c2=O)cc1OCc1ccccc1` [Compound 570, N-[5-benzyloxy-4-isopropyl-2-(trifluoromethyl)phenyl]-4-oxo-1H-quinoline-3-carboxamide], the EC50 was below 10 µM and the “% Activity” value is “++ (between 25% to 100%)”.

Turning to `CCOc1ccc(OCC)c(NC(=O)c2c[nH]c3ccccc3c2=O)c1` [Compound 264, N-(2,5-diethoxyphenyl)-4-oxo-1H-quinoline-3-carboxamide], the EC50 is 10 to 25 µM and the “% Activity” value is “++ (between 25% to 100%)”. Turning to `Cc1ccc(NC(=O)c2c[nH]c3ccccc3c2=O)cc1` [Compound 31, 4-oxo-N-(p-tolyl)-1H-quinoline-3-carboxamide], the EC50 is below 10 µM and the “% Activity” value is “++ (between 25% to 100%)”. Turning to `O=C(Nc1ccccc1-n1cccc1)c1c[nH]c2ccccc2c1=O` [Compound 293, 4-oxo-N-[2-(1H-pyrrol-1-yl)phenyl]-1H-quinoline-3-carboxamide], the EC50 fell in the range of 10 to 25 µM and the “% Activity” value is recorded as “+++ (>100%)”. As for `O=C(Nc1ccc2c(c1)NCC21CC1)c1c[nH]c2ccccc2c1=O` [Compound 22, 4-Oxo-1,4-dihydro-quinoline-3-carboxylic acid N-(1′,2′-dihydrospiro[cyclopropane-1,3′-[3H]indol]-6′-yl)-amide], the EC50 was 10 to 25 µM and the “% Activity” value is listed as “++ (between 25% to 100%)”. Turning to `CNc1cccc2[nH]cc(C(=O)Nc3cc(O)c(C(C)(C)C)cc3C(C)(C)C)c(=O)c12` [Compound 542, N-(5-hydroxy-2,4-ditert-butyl-phenyl)-5-methylamino-4-oxo-1H-quinoline-3-carboxamide], the EC50 was below 10 µM and the “% Activity” value is “+++ (>100%)”. In the same order, the values of `CC(C)(C)c1cc(C(C)(C)C)c(NC(=O)c2c[nH]c3c(F)ccc(F)c3c2=O)cc1O` [Compound 718, 5,8-difluoro-N-(5-hydroxy-2,4-ditert-butyl-phenyl)-4-oxo-1H-quinoline-3-carboxamide] are below 10 µM and “++ (between 25% to 100%)”.

For the compound `Cc1ccc(C(F)(F)F)cc1NC(=O)c1c[nH]c2ccccc2c1=O` [Compound 577, N-[2-methyl-5-(trifluoromethyl)phenyl]-4-oxo-1H-quinoline-3-carboxamide], the concentration for a half-maximal effect (EC50) is below 10 µM and the “% Activity” value was “++ (between 25% to 100%)”. `CC(C)(C)c1cc2cc[nH]c2cc1NC(=O)c1c[nH]c2cccc(O)c2c1=O` [Compound 500, 5-hydroxy-4-oxo-N-(5-tert-butyl-1H-indol-6-yl)-1H-quinoline-3-carboxamide]: the EC50 was below 10 µM and the “% Activity” value was “++ (between 25% to 100%)”. `CSc1ccc(-c2ccccc2NC(=O)c2c[nH]c3ccccc3c2=O)cc1` [Compound 223, N-[2-(4-methylsulfanylphenyl)phenyl]-4-oxo-1H-quinoline-3-carboxamide]: the EC50 is below 10 µM and the “% Activity” value was “++ (between 25% to 100%)”. On to `CC(C)(C)OC(=O)[C@H]1CCCN1c1ccc(NC(=O)c2c[nH]c3ccccc3c2=O)c(C(F)(F)F)c1` [Compound 540, (R)-tert-butyl 1-(4-(4-oxo-1,4-dihydroquinoline-3-carboxamido)-3-(trifluoromethyl)phenyl)pyrrolidine-2-carboxylate], for which the EC50 was below 10 µM and the “% Activity” value is “+++ (>100%)”. In the same order, the values of `O=C(Nc1ccc(C(F)(F)F)cc1Cl)c1c[nH]c2cccc(O)c2c1=O` [Compound 635, N-[2-chloro-4-(trifluoromethyl)phenyl]-5-hydroxy-4-oxo-1H-quinoline-3-carboxamide] are below 10 µM and “++ (between 25% to 100%)”. Regarding `Cc1cccc(C)c1NC(=O)c1c[nH]c2ccccc2c1=O` [Compound 315, N-(2,6-dimethylphenyl)-4-oxo-1H-quinoline-3-carboxamide], the half-maximal effective concentration (EC50) was below 10 µM and the “% Activity” value is listed as “++ (between 25% to 100%)”. As for `COc1ccccc1Oc1ccc(C(F)(F)F)cc1NC(=O)c1c[nH]c2ccccc2c1=O` [Compound 3, N-[2-(2-methoxyphenoxy)-5-(trifluoromethyl)phenyl]-4-oxo-1H-quinoline-3-carboxamide], the concentration giving a half-maximal response (EC50) is below 10 µM and the “% Activity” value is “++ (between 25% to 100%)”. As to `COc1ccc(Cl)cc1-c1ccccc1NC(=O)c1c[nH]c2ccccc2c1=O` [Compound 202, N-[2-(5-chloro-2-methoxy-phenyl)phenyl]-4-oxo-1H-quinoline-3-carboxamide], the half-maximal effective concentration (EC50) is below 10 µM and the “% Activity” value is “++ (between 25% to 100%)”. On to `Nc1cccc(NC(=O)c2c[nH]c3ccccc3c2=O)c1` [Compound 431, N-(3-aminophenyl)-4-oxo-1H-quinoline-3-carboxamide], for which the EC50 was in the range of 10 to 25 µM and the “% Activity” value is recorded as “++ (between 25% to 100%)”.

For the compound `CC(O)c1ccc(NC(=O)c2c[nH]c3ccccc3c2=O)cc1` (centres unmarked) [Compound 450, N-[4-(1-hydroxyethyl)phenyl]-4-oxo-1H-quinoline-3-carboxamide], the half-maximal effective concentration (EC50) lay in the range of 10 to 25 µM and the “% Activity” value is “++ (between 25% to 100%)”. On the same counts, the results for `Cc1cc(C(C)(C)C)c(O)cc1NC(=O)c1c[nH]c2cccc(O)c2c1=O` [Compound 588, 5-hydroxy-N-(5-hydroxy-2-methyl-4-tert-butyl-phenyl)-4-oxo-1H-quinoline-3-carboxamide] are below 10 µM and “++ (between 25% to 100%)”. In the case of `COc1ccc2[nH]cc(C(=O)Nc3cc4[nH]ccc4cc3C(C)(C)C)c(=O)c2c1` [Compound 533, 6-methoxy-4-oxo-N-(5-tert-butyl-1H-indol-6-yl)-1H-quinoline-3-carboxamide], the concentration for a half-maximal effect (EC50) was below 10 µM and the “% Activity” value is given as “+++ (>100%)”. In the case of `CC(C)c1ccc(NC(=O)c2c[nH]c3ccccc3c2=O)cn1` [Compound 235, N-(6-isopropyl-3-pyridyl)-4-oxo-1H-quinoline-3-carboxamide], the EC50 is below 10 µM and the “% Activity” value was “++ (between 25% to 100%)”.

`CC(C)(C)c1ccc(NC(=O)c2c[nH]c3ccccc3c2=O)cc1CN` [Compound 390, N-[3-(Aminomethyl)-4-tert-butyl-phenyl]-4-oxo-1H-quinoline-3-carboxamide]: the concentration giving a half-maximal response (EC50) is 25 to 60 µM and the “% Activity” value is on record as “+ (<25%)”. Consider `O=C(Nc1ccc2c(c1)NCCC2)c1c[nH]c2ccccc2c1=O` [Compound 299, 4-Oxo-N-(1,2,3,4-tetrahydroquinolin-7-yl)-1H-quinoline-3-carboxamide], for which the EC50 is below 10 µM and the “% Activity” value is listed as “++ (between 25% to 100%)”.

Take `CC(C)(C)c1cc2cc[nH]c2cc1NC(=O)c1c[nH]c2c(C(F)(F)F)cccc2c1=O` [Compound 559, 4-oxo-N-(5-tert-butyl-1H-indol-6-yl)-8-(trifluoromethyl)-1H-quinoline-3-carboxamide]: the EC50 lay within 10 to 25 µM and the “% Activity” value was “+ (<25%)”. Take `O=C(Nc1ccccc1-c1cccc(OC(F)(F)F)c1)c1c[nH]c2ccccc2c1=O` [Compound 253, 4-oxo-N-[2-[3-(trifluoromethoxy)phenyl]phenyl]-1H-quinoline-3-carboxamide]: the 50% effective concentration (EC50) was below 10 µM and the “% Activity” value was “++ (between 25% to 100%)”. Consider `CC(C)(C)c1cc(F)c(NC(=O)c2c[nH]c3c(C#N)cccc3c2=O)cc1O` [Compound 519, 8-cyano-N-(2-fluoro-5-hydroxy-4-tert-butyl-phenyl)-4-oxo-1H-quinoline-3-carboxamide], for which the concentration for a half-maximal effect (EC50) was below 10 µM and the “% Activity” value is on record as “++ (between 25% to 100%)”. With `COc1nc2ccccc2c(OC)c1C(=O)Nc1cc(NC(=O)OC(C)(C)C)ccc1C(C)(C)C` [Compound 39, [3-[(2,4-dimethoxy-3-quinolyl)carbonylamino]-4-tert-butyl-phenyl]aminoformic acid tert-butyl ester], the half-maximal effective concentration (EC50) lay in the range of 10 to 25 µM and the “% Activity” value is given as “++ (between 25% to 100%)”. On to `COC(=O)c1cccc(-c2ccccc2NC(=O)c2c[nH]c3ccccc3c2=O)c1` [Compound 68, 3-[2-[(4-oxo-1H-quinolin-3-yl)carbonylamino]phenyl]benzoic acid methyl ester], for which the “% Activity” value is listed as “++ (between 25% to 100%)”. With `O=C(Nc1ccc(N2CCCCC2)cc1C(F)(F)F)c1c[nH]c2ccccc2c1=O` [Compound 686, 4-oxo-N-[4-(1-piperidyl)-2-(trifluoromethyl)phenyl]-1H-quinoline-3-carboxamide], the EC50 was below 10 µM and the “% Activity” value is listed as “++ (between 25% to 100%)”. Turning to `Cc1ccnc(NC(=O)c2c[nH]c3ccccc3c2=O)c1` [Compound 84, N-(4-methyl-2-pyridyl)-4-oxo-1H-quinoline-3-carboxamide], the EC50 was in the range of 25 to 60 µM and the “% Activity” value is on record as “+ (<25%)”. On the same counts, the results for `CCCOc1ccc(NC(=O)c2c[nH]c3ccccc3c2=O)cc1N` [Compound 368, N-(3-amino-4-propoxy-phenyl)-4-oxo-1H-quinoline-3-carboxamide] are below 10 µM and “++ (between 25% to 100%)”. In the case of `O=C(Nc1ccc(C2CCCCC2)c(O)c1)c1c[nH]c2ccccc2c1=O` [Compound 564, N-(4-cyclohexyl-3-hydroxy-phenyl)-4-oxo-1H-quinoline-3-carboxamide], the EC50 is below 10 µM and the “% Activity” value is given as “++ (between 25% to 100%)”.

In the case of `O=C(Nc1cc(C(=O)O)c2cc[nH]c2c1)c1c[nH]c2ccccc2c1=O` [Compound 711, 6-[(4-oxo-1H-quinolin-3-yl)carbonylamino]-1H-indole-4-carboxylic acid], the EC50 was below 10 µM and the “% Activity” value was “++ (between 25% to 100%)”.
